In the OligoGym collection:
Several values for one entry are separate records, joined by “and”; a condition that tells them apart may be missing. Equal entries are not always repeated. After the bases stand the sugars from the 5' end (letter, count) and the backbone: PS all phosphorothioate, else s phosphorothioate and o phosphodiester by linkage. Methylation of C is not given here. e = 2'-O-(2-methoxyethyl) (MOE); k = constrained ethyl (cEt); d = 2'-deoxy (DNA)

Target: IRF4
Conditions: ASO

| Sequence | target mRNA inhibition (MM.1R, 1 µM) | target mRNA inhibition (SK-MEL-28, 4 µM) | further results |
| --- | --- | --- | --- |
| GTAGAGTGAGATGCGG (sugars k3 d10 k3, PS) | 51% and 40% |  | target mRNA inhibition (MM.1R, 0.0625 µM): -4%; target mRNA inhibition (MM.1R, 0.25 µM): 16%; target mRNA inhibition (MM.1R, 4 µM): 70% |
| GTAGGTAGGCACCTGT (sugars k3 d10 k3, PS) |  | 75% |  |
| GTAGTATGAGAAACGG (sugars kkddddddddddkeke, PS) | 28% |  |  |
| GTAGTATGAGAAACGG (sugars kkdddddddddkekek, PS) | 50% |  |  |
| GTAGTATGAGAAACGG (sugars kkkdddddddddkeke, PS) | 15% |  |  |
| GTAGTATGAGAAACGG (sugars kkkddddddddkekek, PS) | 43% |  |  |
| GTATTAATATTCTGAC (sugars k3 d10 k3, PS) |  | 63% |  |
| GTATTTTTCCGTTCCT (sugars k3 d10 k3, PS) | 84% and 74% |  | target mRNA inhibition (H929, 0.04 µM): 33% and 14%; target mRNA inhibition (KMS11, 0.2 µM): 82% and 96%; target mRNA inhibition (MM.1R, 0.0625 µM): 34%; target mRNA inhibition (MM.1R, 0.25 µM): 57%; target mRNA inhibition (MM.1R, 4 µM): 93% |
| GTCACGCCCGCAAAAG (sugars k3 d10 k3, PS) |  | 39% |  |
| GTCATATGGCTAAACC (sugars k3 d10 k3, PS) | 23% |  |  |
| GTCCACATACCTGAAA (sugars k3 d10 k3, PS) | 8% |  |  |
| GTCCGGTTAGCTCATC (sugars k3 d10 k3, PS) |  | 45% |  |
| GTCCTGCTTGCCCGCG (sugars k3 d10 k3, PS) |  | 31% |  |
| GTCCTTCAGATTTACA (sugars k3 d10 k3, PS) | -17% |  |  |
| GTCTACTTGAGTCTGT (sugars k3 d10 k3, PS) |  | 51% |  |
| GTCTAGACAGAGAGTC (sugars k3 d10 k3, PS) |  | 2% |  |
| GTCTAGCTGGGTTTTC (sugars k3 d10 k3, PS) |  | 63% |  |
| GTCTCTACCTACTCCA (sugars k3 d10 k3, PS) |  | 41% |  |

| Sequence | target mRNA inhibition (MM.1R, 1 µM) | target mRNA inhibition (SK-MEL-28, 4 µM) | further results |
| --- | --- | --- | --- |
| GTCTGAGATGTCCAGC (sugars k3 d10 k3, PS) | 7% |  |  |
| GTCTGAGGGAATCTGC (sugars k3 d10 k3, PS) |  | 49% |  |
| GTCTGGCTAGCAGAGG (sugars k3 d10 k3, PS) |  | 66% | target mRNA inhibition (SK-MEL-28, 0.185 µM): 10%; target mRNA inhibition (SK-MEL-28, 5 µM): 68%; target mRNA inhibition (SK-MEL-28, 15 µM): 89% |
| GTCTTAAGGGTTCAAG (sugars k3 d10 k3, PS) |  | 49% |  |
| GTCTTCCACAAGAACT (sugars k3 d10 k3, PS) |  | 47% |  |
| GTCTTTGGGATTCTAT (sugars k3 d10 k3, PS) |  | 65% |  |
| GTGAAACAGCAGTTCT (sugars k3 d10 k3, PS) |  | 62% |  |
| GTGACATAAAGGACCC (sugars k3 d10 k3, PS) | 10% |  |  |
| GTGACTGGAGAGCAAT (sugars k3 d10 k3, PS) |  | 74% |  |
| GTGATAGCTGAGCTGA (sugars kddddddddddkekek, PS) | 29% |  |  |
| GTGATAGCTGAGCTGA (sugars kdddddddddkekeke, PS) | 16% |  |  |
| GTGATAGCTGAGCTGA (sugars kkdddddddddkdkdk, PS) | 34% |  |  |
| GTGATAGCTGAGCTGA (sugars kkdddddddddkekek, PS) | 39% |  |  |
| GTGATGTCAGGTTTTC (sugars k3 d9 k3 e1, PS) | 71% |  | target mRNA inhibition (MM.1R, 0.074 µM): 16%; target mRNA inhibition (MM.1R, 0.222 µM): 41%; target mRNA inhibition (MM.1R, 0.666 µM): 66%; target mRNA inhibition (MM.1R, 2 µM): 85% |
| GTGATGTCAGGTTTTC (sugars kdddddddddkekeke, PS) | 30% |  |  |
| GTGATGTCAGGTTTTC (sugars kkdddddddddekeke, PS) | 58% |  | target mRNA inhibition (MM.1R, 0.074 µM): 14%; target mRNA inhibition (MM.1R, 0.222 µM): 16%; target mRNA inhibition (MM.1R, 0.666 µM): 30%; target mRNA inhibition (MM.1R, 2 µM): 59% |
| GTGATGTCAGGTTTTC (sugars kkkdddddddddkeke, PS) | 34% |  |  |
